Assay results taken from patent publication US20110152313A1 (MACQUARIE UNIVERSITY, priority 2008, published 2011).

Target: T1, CDK5/p25 (Homo sapiens, UniProt Q00535)
T1 construct: made in house
Test: protein kinase activity assay ([γ-32P] ATP, histone H1)
Format: biochemical
Settings: 15 μM ATP, 30° C.; tested up to 100 μM; read-out: IC50 CDK5/p25
Method: Buffer A: 10 mM MgCl2, 1 mM EGTA, 1 mM DTT, 25 mM Tris-HCl pH 7.5, 50 μg heparin/mL. Buffer C: 60 mM β-glycerophosphate, 15 mM p-nitrophenylphosphate, 25 mM Mops (pH 7.2), 5 mM EGTA, 15 mM MgCl2, 1 mM DTT, 1 mM sodium vanadate, 1 mM phenyl phosphate.
Anticancer activity is commonly associated with the inhibition of kinase enzymes. […] Blank values are subtracted and activities expressed as percent of the maximal activity, i.e. in the absence of inhibitors (Table 4). Controls were performed with appropriate dilutions of DMSO, which was used to dissolve all test compounds.
CDK1/cyclin B (native M phase starfish oocytes), and CDK5/p25 (recombinant human) can be prepared according to the prior art (Meijer, L.; Thunnissen, A. M. W. H.; White, A. W.; Gamier, M.; Nikolic, M., et al. Chem. Biol. 2000, 7, 51-63). […] ATP (3,000 Ci/mmol, 10 mCi/mL) in a final volume of 30 μL. After 30 min. incubation at 30° C., 25 μL aliquots of supernatant are spotted onto 2.5×3 cm pieces of Whatman P81 phosphocellulose paper and, 20 s later, the filters are washed five times (for at least 5 min. each time) in a solution of 10 mL phosphoric acid/L of water. The wet filters are then counted in the presence of 1 mL ACS (Amersham) scintillation fluid.

T1 sequence (Q00535 whole entry): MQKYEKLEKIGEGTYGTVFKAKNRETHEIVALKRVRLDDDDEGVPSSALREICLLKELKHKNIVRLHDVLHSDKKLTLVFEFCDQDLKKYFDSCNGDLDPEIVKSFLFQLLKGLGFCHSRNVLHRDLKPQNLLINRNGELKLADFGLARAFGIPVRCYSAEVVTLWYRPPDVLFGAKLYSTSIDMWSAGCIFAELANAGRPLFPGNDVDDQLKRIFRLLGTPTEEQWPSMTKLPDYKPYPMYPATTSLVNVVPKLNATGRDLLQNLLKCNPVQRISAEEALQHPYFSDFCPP
T1 sequence (Q15078 99-307 partner limits assumed): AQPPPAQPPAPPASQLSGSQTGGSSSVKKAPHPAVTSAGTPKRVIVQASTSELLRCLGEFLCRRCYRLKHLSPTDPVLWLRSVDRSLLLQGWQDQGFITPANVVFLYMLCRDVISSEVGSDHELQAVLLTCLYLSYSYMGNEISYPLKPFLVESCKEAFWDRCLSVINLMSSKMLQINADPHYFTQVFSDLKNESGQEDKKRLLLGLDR

How did the IC50 turn out when `Nc1nc2c(-c3cc(Br)c(Br)[nH]3)nccc2[nH]1` [Ageladine A, ageladine A, reference compound] was run?
The IC50 was greater than 100 µM.
